Data published in patent US20240101664A1, “TREATMENT OF PERITONEAL, PLEURAL, AND PERICARDIUM ADHESIONS” (UTI LIMITED PARTNERSHIP, priority 2020, published 2024).

Key:
[1] = system: Gata6+ cavity macrophages; assay: Open-pouch intravital microscopy: cavity macrophage recruitment/aggregation at transmesothelial laser injury; type: in vivo, mouse; conditions: for number of macrophages attaching/aggregating at the injury (normalized macrophage count): 30 min post transmesothelial laser injury, intraperitoneal treatment 20 min before
Experimental: The following neutralizing antibodies (versus isotype controls) and reagents were intraperitoneally tested for their effect on macrophage recruitment: anti-mouse CD18 (100 μg per mouse, GAME-46, BD Pharmingen)+anti-mouse CD29 (100 μg per mouse, HM β31-1, BD Pharmingen) versus isotype rat IgG1, κ (100 μg per mouse, BioXcell)+hamster IgG (100 μg per mouse, eBioscience); anti-mouse CD162 (100 μg per mouse, 4RA10, BD Pharmingen) versus isotype rat IgG1 (100 μg per mouse, eBioscience); anti-human CD9 (10 μg per mouse, ALB 6, Santa Cruz) versus isotype mouse IgG1 (BD Biosciences). Heparin (Sandoz) was diluted in sterile saline to reach final dose of 100-1000 U per mouse. Argatroban (Sigma-Aldrich) was dissolved in DMSO at 20 mg/ml and diluted with saline to reach a final concentration of 300 μg per mouse. Hirudin (Multiplate Hirudin Blood Tube, Roche) was dissolved in saline and injected intraperitoneally at a dose of 1 tube per mouse. Polyinosinic acid (poly(I)) and polycytidylic acid (poly(C)) were purchased as potassium salt (Sigma-Aldrich) and dissolved in double-distilled water according to manufacturer's instructions to 5 mg/ml and 20 mg/ml, respectively. Immediately before experiments, the poly(C) stock solution was diluted with double-distilled water to a final concentration of 5 mg/ml. Both poly(I) and poly(C) were then diluted with saline to reach a final dose of 250 μg per mouse. A total of […] Anti-mouse Marco antibody (ED31, Biorad MCA1849) versus rat IgG1 Isotype control (eBRG1, eBioscience 16-4301-85) was injected intraperitoneally in a total volume of 140 μl PBS per mouse. A volume of 100 μl anti-mouse thrombocyte depletion serum (Cedarlane, CLAD31440) versus normal rabbit serum (Cedarlane, CLSD403) was injected intra venously 24 hours before imaging.
Mice used for IVM were 8-10 weeks old weighted an average of 20 g. Mice in each experiment were of the same sex. If not specified otherwise, mice were generally treated pharmacologically or with neutralizing antibodies 20 min before imaging. Mice were anesthetized with a mixture of ketamine hydrochloride (200 mg/kg, Rogar/SBT) and xylazine hydrochloride (10 mg/kg, MTC Pharmaceuticals). After anesthesia, the tail vein was cannulated for administration of additional anesthetic, antibodies, or other reagents in certain experiments.
The pouch model IVM (FIG. 1) was prepared with the mouse in supine position. Thermal support was given with a heated stage to maintain 37° C. body temperature. The fur and skin above the ventral abdominal wall were aseptically cleaned with 70% ethanol and then removed. Care was taken not to open the peritoneal cavity. If the peritoneal cavity was accidentally opened, the mouse was immediately euthanized. Staining antibody or dye was intraperitoneally injected with a 28G needle in midline about 10 mm above the symphysis. After withdrawing the needle, a suture was placed to seal the hole caused by the injection. This suture was then used to immobilize a part of the peritoneum onto the coverslip. For this, the mouse was placed in a semi-prone position. Placing a cotton tip with slight top to bottom pressure helped to further increase imaging stability yet preserved a connection between the imaging pouch and peritoneal cavity so that peritoneal fluid movement was preserved. The closed pouch was prepared by applying more pressure on the cotton tip which allowed us to separate the pouch from the peritoneal cavity in terms of fluid movement. After IVM, all mice were immediately euthanized.
Images were exported as uncompressed .tif files and analyzed using ImageJ (55). Tracking was generally performed in an automated fashion using the TrackMate plugin (56). The cell shown in FIG. 1J was tracked manually. Cell counts and injury size was measured manually in ImageJ. Three-dimensional visualizations and volume quantifications were performed in Imaris software. […]

[2] = system: peritoneal cavity macrophages; assay: Aggregometry of isolated peritoneal macrophages; type: cell-based, mouse; conditions: 37° C., 400 rpm
Experimental: Macrophages were isolated by peritoneal lavage as described above with the use of 2 mM EDTA containing HBSS instead of PBS. Macrophages were centrifuged at 300 g for 5 min in a 50-ml polystyrene tube. The pellet (with approximately 100 μl of fluid remaining with 3×10^6 cells) was diluted in HBSS containing 2 mM Ca^2+ to a final volume of 400 μl. It was then transferred to a aggregometry cuvette, which was warmed to 37° C. and continuously stirred (400 rpm). Light transmission was recorded on a 700 Whole Blood/Optical Lumi-Aggregometer (Chrono-log) and was expressed in arbitrary units with buffer representing 100% transmission and washed macrophage suspension 0% transmission, respectively. Agonists and calcium were added to reach a Ca^2+ concentration of 4 mM total or 2 mM free calcium in a buffer containing 2 mM EDTA. The preparation of platelet aggregometry was performed as previously described (53). Washed platelets (50 μl with 5×10^5 platelets per microliter) were diluted into 110 μl of Tyrode-HEPES buffer containing 2 mM Ca^2+ and 100 μg/ml human fibrinogen. Agonists (ATP, thrombospondin) were added at the indicated concentrations to the continuously stirred platelet suspension. Murine neutrophils were isolated from the bone marrow of wild-type C57Bl/6, mice as previously described (46). Briefly, bone marrow was collected from the femurs and tibias of euthanized mice, and neutrophils were isolated using a discontinuous Percoll gradient consisting of a Percoll solution (9 ml of Percoll and 1 ml 10× of HBSS) diluted to 72%, 64%, and 52% in 1×HBSS. Following centrifugation, the neutrophil band was removed and washed in HBSS. Cell pellets were resuspended in HBSS containing either 2 mM Ca2^+ or EDTA. Aggregometry was performed as described above.

[3] = system: macrophage disappearance reaction; conditions: intraperitoneal administration; hypersensitivity reaction or Escherichia coli; cited from earlier work
[4] = system: focal thermal injury of the parietal peritoneum; assay: Peritoneal focal thermal injury healing; type: in vivo, mouse; conditions: 3 days after injury; wound area and mesothelial coverage; poly(C) control
Experimental: Abdominal-wall-flap IVM was used to visualize the mesothelium and epigastric blood vessels (FIG. 2A, FIG. 3, F-I). Mice were placed in supine position on heated stage to maintain 37° C. body temperature. The fur and skin above the ventral abdominal wall were removed and then aseptically cleaned with 70% ethanol. Staining antibodies (anti-mouse podoplanin and anti-mouse F4/80 as described above) were injected. After mice were incubated for 10 min on a heated stage, the peritoneum was incised with an inverted U-shaped incision ranging from directly below the xyphoid process to the inguinal ligament on both sides. This created a perfused flap of peritoneum and the rectus abdominis muscles. The flap was washed with 1 ml of PBS and placed directly on the glass coverslip of the heated stage for imaging of abdominal wall or epigastric blood vessels.
(§1) For surgical procedures, mice were 8-12 weeks old with a body weight >20 g. Mice in each experiment were of the same sex. Mice were treated before surgery with poly(I), poly(C), liposomes, or diphtheria toxin as described above. Anesthesia was induced and maintained with isoflurane. Eye lubricant was topically applied and buprenorphine (0.1 mg/kg) was subcutaneously administered.
The peritoneal focal thermal injury was adapted from the focal thermal liver injury that was previously described (46). The skin was incised in midline. […]

[5] = system: focal thermal lesions of liver; assay: Focal thermal hepatic injury healing; type: in vivo, mouse; conditions: 7 d after injury
Experimental: Intravital liver imaging was performed as previously described (45). Exposed tissues were visualized with a Leica SP8 DIVE inverted microscope equipped with 4 Tune, a tunable in vivo detection system and a multiphoton light path. All images shown here were acquired using a HC FLUOTAR L 25×/0.95 W objective with water as immersion medium and 2× digital zoom. Fluorescent moieties were excited with a tunable InSight ×3 ultrafast laser (Spectra-Physics) at 800-1000 nm. Signal was detected using external, extremely sensitive non-descanned hybrid detectors. Second harmonic generation by collagen was recorded by tuning the detector to excitation wavelength divided by two ±20 nm. Leica LAS X software was used to drive the microscope.
as §1
Focal thermal injury in the liver was performed as previously described (49). In brief, a mini-laparotomy was made just below the xyphoid to expose the liver. Three focal injuries were induced on the surface of the liver using the tip of a heated 30G needle mounted on an electrocautery device. […]

peritoneal adhesions = assay: Peritoneal-button injury model of post-surgical peritoneal adhesions; type: in vivo, mouse
Experimental: as §1
For the peritoneal button injuries, skin was incised in midline. The peritoneal cavity was accessed through midline laparotomy. Standardized lesions were induced as previously described (47). In brief, a small portion of the peritoneum was grasped and ligated at its base using 4-0 Prolene suture (Ethicon), creating a standardized peritoneal button. This was repeated for a total of four buttons, one in each quadrant. Finally, peritoneum and skin were sutured with 6-0 Prolene (Ethicon) running suture.
Prior to sacrifice, mice were anesthetized (10 mg/kg xylazine hydrochloride and 200 mg/kg ketamine hydrochloride). Laparotomies were performed in an inverted U-shape. Adhesion were scored based on their tensile strength and vascularization (Table 2) as previously described (51). The animal was subsequently euthanized and perfused with 2 mM EDTA and 4% PFA containing PBS. Peritoneal buttons/adhesions were excised and post-fixated in 4% PFA containing PBS for 2-4 hours. Tissue staining and clearing was performed as previously described (52). […] Then the biopsies were incubated with fluorescently conjugated monoclonal antibodies for 1-4 days at 4° C. on a rotation device. […] Signal was detected using external, non-descanned hybrid detectors. Second harmonic generation by collagen was recorded by tuning the detector to excitation wavelength divided by two ±20 nm. […]
Mouse peritoneal lavage was performed in anesthetized animals by injection and aspiration of three times 5 ml of sterile ice-cold PBS containing 2 mM EDTA into the peritoneal cavity and subsequent retrieval. […] Samples were run using BD FACS Canto flow cytometer and analyzed using FlowJo software (Tree Star). […]

[6] = system: cells isolated from abdominal cavity (peritoneal fluid sample); assay: Aggregometry of human peritoneal fluid cells; type: cell-based; conditions: ATPgs 100 uM, CaCl 2 mM, Poly(I)/Poly(C) 2 mg/ml; phase contrast
Experimental: Cells were isolated from abdominal cavity by laparotomy or laparascopy, lavaged with 200 ml saline and stored on ice. The cell samples were transferred through 70 um filters into 50 ml falcon tubes and spun at 300 g for 5 min at 4 degree. The pellet was resuspended in HBSS without Ca and without Mg. For aggregometry cells were exposed to: EDTA final concentration 2 mM; ATPgs final concentration 100 uM; CaCl final concentration 2 mM; and Poly(I)/Poly(C) final concentration 2 mg/ml. The final volume of 100 uL was attained with HBSS. Cells from one patient were exposed to three different conditions: EDTA alone (negative control); ATP/Poly(C); ATP/Poly(I). Image with phase contrast was captured (FIG. 14).

[7] = intravital imaging following poly(I) administration

## Hirudin
[1]
  number of macrophages attaching/aggregating at the injury (normalized macrophage count): did not replicate this effect

## Nc1ncnc2c1ncn2[C@@H]1O[C@H](COP(=O)(O)OP(=O)(O)OP(=O)(O)O)[C@@H](O)[C@H]1O [adenosine triphosphate]
[2]
  macrophage aggregation in vitro: accelerate macrophage aggregation

## Heparin
[1]
  number of macrophages attaching/aggregating at the injury (normalized macrophage count): significantly reduced the number of attaching cells
[3]
  macrophage disappearance reaction: inhibit the macrophage disappearance reaction

## CC1CNc2c(cccc2S(=O)(=O)N[C@@H](CCCNC(=N)N)C(=O)N2CC[C@@H](C)C[C@@H]2C(=O)O)C1 (some centres unmarked) [argatroban, Argatroban]
[1]
  number of macrophages attaching/aggregating at the injury (normalized macrophage count): did not replicate this effect

## Polyinosinic acid [poly(I)]
[1]
  number of macrophages attaching/aggregating at the injury (normalized macrophage count): significantly decreased macrophage aggregation
[1]; [7]
  initial adhesion to the wound: left relatively intact
  macrophage-macrophage aggregate formation over time: significant decrease
[2]
  macrophage aggregation in vitro: prevent macrophage aggregation in vitro
[4]
  healing of focal thermal injury of the parietal peritoneum: prolonged healing
[5]
  healing of focal thermal lesions of liver: similarly affected
Peritoneal adhesions; 3 hours post-surgery, flow cytometry
  reduction of cavity macrophage numbers in the peritoneal lavage after surgery: only partially inhibited
Peritoneal adhesions; within 3 hours post-surgery
  recruitment of cavity macrophage aggregates from the peritoneal fluid to the buttons: could be reduced
Peritoneal adhesions; within 7 days post-surgery
  number and tenacity of peritoneal adhesions: significantly reduced
[6]
  aggregates of human peritoneal fluid cells: no aggregates

## O=C(O)CN(CCN(CC(=O)O)CC(=O)O)CC(=O)O [EDTA]
[2]
  macrophage aggregation in vitro: inhibited

## Polycytidylic acid [Poly(C)]
[6]
  aggregates of human peritoneal fluid cells: large aggregate observed
